Data reported in PMC10896221, “Elucidating the glycan-binding specificity and structure of Cucumis melo agglutinin, a new R-type lectin” (Beilstein Journal of Organic Chemistry, 2024).

Key:
[1] = target: T1, Cucumis melo agglutinin (CMA1) (Cucumis melo, UniProt A0A1S4E5V9); experiment: X-ray crystal structure ([…] Å); SPR competition on GalNAc chip; assay type: binding
T1 construct: gene LOC107992255; full-length CMA1, both CBM13 domains; probably CHO-S expressed with C-terminal His6

[2] = target: T2, Cucumis melo agglutinin (CMA1) (Cucumis melo, UniProt A0A1S4E5V9, L33V); experiment: X-ray crystal structure ([…] Å) and ITC; thermal shift with full-length protein; assay type: binding
T2 construct: gene LOC107992255; CMA1-Nter, N-terminal domain (6–132 in mature protein)
T2 sequence (A0A1S4E5V9 entry or part of it L33V): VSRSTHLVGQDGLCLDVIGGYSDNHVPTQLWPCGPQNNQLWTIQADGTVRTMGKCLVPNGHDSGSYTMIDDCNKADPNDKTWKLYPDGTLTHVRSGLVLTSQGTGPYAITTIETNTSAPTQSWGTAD

T1 sequence (A0A1S4E5V9 entry or part of it): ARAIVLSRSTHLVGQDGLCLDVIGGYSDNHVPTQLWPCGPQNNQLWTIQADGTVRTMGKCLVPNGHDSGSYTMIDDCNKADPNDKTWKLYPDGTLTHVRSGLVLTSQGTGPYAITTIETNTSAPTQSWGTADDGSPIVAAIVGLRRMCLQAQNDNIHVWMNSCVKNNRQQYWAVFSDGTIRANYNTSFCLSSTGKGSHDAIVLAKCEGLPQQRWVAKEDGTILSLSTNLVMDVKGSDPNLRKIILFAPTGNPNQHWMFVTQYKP

Structure (SMILES)	IC50 [1] [µM]	Kd [2] [µM]
CC(=O)N[C@@H]1[C@@H](O)[C@H](O[C@@H]2O[C@H](CO)[C@H](O)[C@H](O)[C@H]2O)[C@@H](CO)O[C@@H]1O [LacNAc, N-acetyllactosamine]	1.4	–
CC(=O)N[C@@H]1[C@@H](O)[C@@H](O)[C@@H](CO)O[C@H]1O [GalNAc]	–	940
